Earlier results in patent publication US20200147118A1, “COMPOSITIONS AND METHODS FOR DETECTION, RISK ASSESSMENT AND TREATMENT OF DIABETES, OBESITY, AND INFLAMMATION” (OTTAWA HEART INSTITUTE RESEARCH CORPORATION, priority 2018, published 2020).

Tested on: iNKTs
Settings: obese mice, WT vehicle vs WT αGalCer, dataset GSE36032

## CCCCCCCCCCCCCCCCCCCCCCCCCC(=O)N[C@@H](CO[C@H]1O[C@H](CO)[C@H](O)[C@H](O)[C@H]1O)[C@H](O)[C@H](O)CCCCCCCCCCCCCC [αGalCer]
  E4bp4 expression in adipose tissue: increases
  Ripk1 expression in adipose tissue: reduces
